# Test results reported in patent US5696245A, “Fructofuranosyl substituted polymers and methods for their production” (The University of Montana, priority 1995, dated 1997).
# Columns and labels:
# [1] = Solubility of Estriol in water in presence of CD's and Fru-CD's; assay type: physicochemical
# Procedure: (§1) The solubilities of 2 and 4 were determined as were their respective abilities to solubilize a slightly soluble drug.
# Solubility of Estriol in Water in
# Presence of CD's and Fru-CD's at 20° C.
# Solubility in 1.5 × 10^-2 M CD
# invertase [2] = assay: Hydrolysis by invertase; assay type: biochemical; details: conditions of complete sucrose hydrolysis in 30 minutes
# From the text: (§2) No inhibition was manifested by the parent CD's. […] Furthermore, provided that the Fru-α-CD is capable of transport to regions of plants or of plant cells, where invertase action occurs, then it is a potent plant growth regulator.
# invertase [3] = assay: Inhibition of invertase (hydrolysis of sucrose); assay type: biochemical; details: for inhibition of invertase: 1:1 mole ratio with sucrose
# From the text: Reference is now made to the drawings accompanying the application wherein the sole Figure is a graph showing the action of invertase on sucrose in the presence of cyclodextrins and fructosyl cyclodextrins.
# as §2
# [4] = Solubility in water of CD's and Fru-CD's; assay type: physicochemical; details: 21° C. ± 1° C.
# Procedure: as §1
# ^a determined at 21° C. ± 1° C.
SMILES,hydrolysis by invertase (invertase [2]),inhibition of invertase (invertase [3]),Solubility in water [4] [mg/mL],further results
"C[C@]12CC[C@@H]3c4ccc(O)cc4CC[C@H]3[C@@H]1C[C@@H](O)[C@@H]2O [Estriol, reference compound]",–,–,–,"solubility ([1]; water without CD, 20° C.): 0.023 mg/mL"
"OC[C@H]1O[C@@](CO)(OC[C@H]2O[C@@H]3O[C@H]4[C@H](O)[C@@H](O)[C@@H](O[C@H]5[C@H](O)[C@@H](O)[C@@H](O[C@H]6[C@H](O)[C@@H](O)[C@@H](O[C@H]7[C@H](O)[C@@H](O)[C@@H](O[C@H]8[C@H](O)[C@@H](O)[C@@H](O[C@H]2[C@H](O)[C@H]3O)O[C@@H]8CO)O[C@@H]7CO)O[C@@H]6CO)O[C@@H]5CO)O[C@@H]4CO)[C@@H](O)[C@@H]1O [compound 4, 6-O-(β-D-fructofuranosyl) cyclohexaamylose]",unaffected by invertase,"to a much greater extent, 4 demonstrated inhibition of invertase",1054,"type of invertase inhibition (invertase [3]; hydrolysis of sucrose by invertase, detailed kinetic study still required): appears to be a non-reversible inhibitor"
"OC[C@H]1O[C@@](CO)(OC[C@H]2O[C@@H]3O[C@H]4[C@H](O)[C@@H](O)[C@@H](O[C@H]5[C@H](O)[C@@H](O)[C@@H](O[C@H]6[C@H](O)[C@@H](O)[C@@H](O[C@H]7[C@H](O)[C@@H](O)[C@@H](O[C@H]8[C@H](O)[C@@H](O)[C@@H](O[C@H]9[C@H](O)[C@@H](O)[C@@H](O[C@H]2[C@H](O)[C@H]3O)O[C@@H]9CO)O[C@@H]8CO)O[C@@H]7CO)O[C@@H]6CO)O[C@@H]5CO)O[C@@H]4CO)[C@@H](O)[C@@H]1O [compound 2, 6-O-(β-D-fructofuranosyl) cycloheptaamylose]",unaffected by invertase,demonstrated inhibition of invertase,1136,"ability to solubilize sparingly soluble compounds by inclusion, vs parent cyclodextrins ([1]; general description): increased ability to solubilize"
"OC[C@H]1O[C@@](CO)(O[C@H]2O[C@H](CO)[C@@H](O)[C@H](O)[C@H]2O)[C@@H](O)[C@@H]1O [sucrose, reference compound]",complete hydrolysis,–,–,–
"OC[C@H]1O[C@@H]2O[C@H]3[C@H](O)[C@@H](O)[C@@H](O[C@H]4[C@H](O)[C@@H](O)[C@@H](O[C@H]5[C@H](O)[C@@H](O)[C@@H](O[C@H]6[C@H](O)[C@@H](O)[C@@H](O[C@H]7[C@H](O)[C@@H](O)[C@@H](O[C@H]1[C@H](O)[C@H]2O)O[C@@H]7CO)O[C@@H]6CO)O[C@@H]5CO)O[C@@H]4CO)O[C@@H]3CO [α-CD, cyclohexaamylose, reference compound]",–,–,126,–
"OC[C@H]1O[C@@H]2O[C@H]3[C@H](O)[C@@H](O)[C@@H](O[C@H]4[C@H](O)[C@@H](O)[C@@H](O[C@H]5[C@H](O)[C@@H](O)[C@@H](O[C@H]6[C@H](O)[C@@H](O)[C@@H](O[C@H]7[C@H](O)[C@@H](O)[C@@H](O[C@H]8[C@H](O)[C@@H](O)[C@@H](O[C@H]1[C@H](O)[C@H]2O)O[C@@H]8CO)O[C@@H]7CO)O[C@@H]6CO)O[C@@H]5CO)O[C@@H]4CO)O[C@@H]3CO [β-CD, cycloheptaamylose, reference compound]",–,–,20,–
